The values that follow come from article PMC3072031 (Analytical chemistry, 2010).

One assay has as its target detection conjugate. In kind it is binding. Particulars: deduced from equation (1).
The next assay addresses Aβ(1–40) mAb. The conditions noted are these: reported value; ref [41]; cited from earlier work.

Consider “Aβ(1–40): amyloid-β peptide, purchased from American Peptide Inc.; endogenous peptide in human CSF samples”, for which the “KD deduced from Langmuir isotherm, in words” value on detection conjugate is listed as “nanomolar level”. Besides, the “KD between the Aβ(1–40) mAb and Aβ(1–40), in words” value at Aβ(1–40) mAb is reported as “nanomolar level”.

On to “Aβ(1–42): 42-residue-long amyloid-β peptide, purchased from American Peptide Inc.; endogenous peptide in human CSF samples”, for which the “KD deduced from Langmuir isotherm, in words” value on detection conjugate was “nanomolar level”.
